According to US20070270403A1 (priority 2003, published 2007):
Where two headings read alike, the source gives them in different places.

Key:
[1] = system: Sprague-Dawley laboratory rats; assay: Locomotion (ambulations) by infrared photobeams (risperidone studies); type: in vivo, Sprague-Dawley Rattus Norvegicus; details: Subacute
Protocol: (§1) Behaviors were monitored with infrared photobeams which surrounded the faradaic chamber. Open-field behaviors of locomotion (ambulations) and stereotypy (fine movements of sniffing and grooming) were recorded in sec and repeated every five min for a period of 2 hrs before each treatment and a period of 2 hrs after each treatment. Open-field behaviors were monitored simultaneously with in vivo microvoltammetric recordings of monoamines.
(§2) The first hr pre-drug, allowed exploratory behavior. Exploratory behavior is defined as open-field behavior of ambulations (forward locomotion) and stereotypy (fine movements of sniffing and grooming), wherein animals respond to the stimuli of a novel environment with a high frequency of behavioral counts. The second hr pre-drug allowed the animal to become habituated before treatment. […] In the acute studies, each drug was administered […]. For the subacute studies, twenty four hrs later, the animals were again placed in the faradaic behavioral chamber and no further drug was administered. Each animal was monitored for possible recovery, withdrawal or after-effects. of each treatment WHILE open-field behaviors of locomotions and stereotypy were monitored with computerized infrared photocell beams which surround the faradaic chamber.
(§3) The faradaic chamber was made of plexiglas and covered with copper wire to refract possible electrical artifacts (dimensions: 24 inch (width) by 18 inch (depth) by 23.5 inch (height)). A 16 by 16 array of infrared photobeams, held in place by an aluminum frame, was situated ¾ inch above the Plexiglas floor of the chamber to detect locomotor and stereotypic movements. Photobeams were sampled by a Pentium computer to define the x-y position of the animal within a 1.5 inch resolution every 100 msec. When an x-y position was calculated, it was used to define a particular behavioral parameter. This system is a modified version of an Activity Pattern Monitor (APM) (San Diego Instruments, San Diego, Calif.). Behavioral data is presented in terms of Frequency of Events.
(§4) Neurochemical and behavioral data, derived from the last thirty minutes of the habituation period, provided the baseline data. […] Where appropriate, data points in the time course were subjected to 95% Confidence Limits (C.L.).

[2] = cited from earlier work
[3] = Pharmacokinetics of cocaine and its metabolites (literature); details: rat, in vivo, ip; i.p. cocaine, extrapolated
[4] = system: Sprague-Dawley laboratory rats; assay: Locomotor activity (ambulations) by infrared photobeams (clozapine studies); type: in vivo, Sprague-Dawley Rattus Norvegicus; details: Subacute, cocaine 10 mg/kg i.p. on Day 1
Source text: Locomotor activity (ambulation) was monitored with infrared photobeams at the same time as DA and 5-HT release in NAcc was detected with BRODERICK PROBES® in conjunction with In Vivo Microvoltammetry. The chamber was faradaic, covered with copper to refract possible electrical artifacts (dimensions: 24 in (width) by 18 in (depth) by 23.5 in (height)). A 16 by 16 array of these infrared photobeams, were held in place by an aluminum frame which was situated ¾ in above the Plexiglas floor of the chamber to detect locomotor activity. Photobeams were sampled by a Pentium computer to define the x-y position of the animal within a 1.5 in resolution every 100 msec. When an x-y position was calculated, it was used to define the frequency of locomotor activity in counts. The locomotor activity system is a modified version of an Activity Pattern Monitor (APM) (San Diego Instruments, San Diego, Calif.). Behavioral data is presented in absolute frequency, i.e., number of counts recorded.
The first hr pre-drug allowed exploratory behavior. Exploratory behavior is defined as open-field behavior of ambulations (forward locomotion) wherein animals respond to the stimuli of a novel environment with high frequency of behavioral counts. The second hr pre-drug allowed the animal to become habituated before treatment.
In the Acute studies, each drug was administered at the end of the habituation period. Baseline (control) values were taken every five min for the last thirty min of the habituation period at which time drug injection(s) took place. Electrochemical recordings for DA and 5-HT release in NAcc, were continued for two hrs; at the same time, locomotor behavior continued to be monitored and recorded with infrared photobeams. At the end of the 2 hr drug(s) study, animals were then placed back in their home cages.
In the Subacute studies, which took place twenty-four hrs later, the animals were again placed in the faradaic behavioral chamber and no further drug was administered. Recordings of separate electrochemical signals for DA and 5-HT release in NAcc, were taken for one hr; at the same time, locomotor behavior was monitored and recorded with infrared photobeams.
as §4

[5] = system: Sprague-Dawley laboratory rats; assay: Stereotypy (fine movements of sniffing and grooming) by infrared photobeams (risperidone studies); type: in vivo, Sprague-Dawley Rattus Norvegicus
Protocol: as §1, §2, §3, §4

5-HT release in NAcc = assay: In vivo microvoltammetry, 5-HT release in NAcc (risperidone studies); design: species or system Sprague-Dawley Rattus Norvegicus; details: Subacute, cocaine 10 mg/kg i.p. on Day 1
Protocol: In vivo microvoltammetry was used to detect dopamine (DA) and serotonin (5-HT) release from Nucleus Accumbens (NAcc) of freely moving, male, Sprague Dawley laboratory rats, while animals' locomotor (forward ambulations) and stereotypic behavior (fine movements of sniffing and grooming) were monitored at the same time with infrared photobeams. Monoamine release mechanisms were determined by using a depolarization blocker, gamma-butyrolactone (γBL). Miniature carbon sensors, BRODERICK PROBE® Lauric Acid Microelectrodes, smaller than a human hair, were used in conjunction with a semidifferential electrochemical circuit, to detect release of each monoamine in separate signals and within seconds. […] The hypothesis for the present studies is derived from a growing body of evidence that cocaine-induced psychosis and schizophrenic psychosis share similar neurochemical and behavioral manifestations.
Animals were purchased from Charles River Laboratories, Kingston, N.Y. and were housed in our animal care facilities for two weeks before surgery was performed. The Animal Care Facility operates under the auspices of the CUNY, City College Institutional Animal Care and Use Committee (IACUC) in compliance with National Institute of Health (NIH) guidelines. The weight range for the animals, at the time of the studies, was 350-475 g. Animals were group housed before surgery, individually housed after surgery and fed Purina Rat Chow and water ad libitum. A twelve hr dark-light cycle was maintained both in the housing of the animals and throughout the experimental studies. […] A Ag/AgCl reference electrode was placed in contact with dura, 7 mm anteriorally and contralaterally to the indicator microelectrode. A stainless steel auxiliary microelectrode, was placed in contact with dura.
In vivo microvoltammetric studies on conscious Sprague-Dawley laboratory rats were begun nine to fifteen days after the aseptic surgical operations were performed. On each experimental day, animals were placed in a Plexiglas-copper faradaic chamber. The three-microelectrode assembly, enclosed within the animal's prosthetic acrylic cap, was connected to a CV37 detector by means of a mercury commutator (Br. Res. Instr., Princeton, N.J.), a flexible cable, and a mating connector (BJM Electronics, Staten Island, N.Y.). The CV37 detector was electrically connected to a Minigard surge suppresser (Jefferson Electric, Magnetek, N.Y.) which was then connected to an electrical ground in isolation. […] Each animal was used as its own control. In vivo microvoltammetric scans were recorded in sec and repeated every five min for a period of 2 hrs before each treatment and a period of two hrs after each treatment.
as §2

In the case of `COC(=O)[C@H]1[C@@H](OC(=O)c2ccccc2)C[C@@H]2CC[C@H]1N2C` [Cocaine, cocaine], the “Decrease in locomotor activity frequency on Day 2 compared with drug treatment, Day1” value [1] is listed as “about 200 counts”, the half-life ([2]; i.v. cocaine) is listed as 0.5 h and the half-life ([2]; s.c. cocaine) is listed as 4 h. For the same molecule, the half-life [3] was ~2 h, the “Decrease in locomotor activity on Day 2 compared with Day 1 effects of cocaine” value [4] was 250 counts and the “Stereotypy frequency, Day 2 (Subacute)” value ([5]; 24 hr after cocaine 10 mg/kg i.p. or risperidone 2 mg/kg s.c. + cocaine) was 40 counts. For the same molecule, the “Decrease in stereotypy frequency on Day 2 compared with drug treatment, Day1” value ([5]; Subacute, cocaine 10 mg/kg i.p.) was “about 20 counts”, the “Stereotypy frequency with drug treatment, Day1” value ([5]; cocaine 10 mg/kg i.p. or risperidone 2 mg/kg s.c. + cocaine) was 60 counts and the “Decrease in 5-HT release on Day 2 compared to drug effect on Day1” value (5-HT release in NAcc) was “about 75%”.
